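Step 1: Grow cells in 96-well plates. Step 2: Expose to compound for 48 hours at 5 concentrations. Step 3: Interpolate endpoints linearly; if unreached, use highest concentration. Abbreviation: GI50, concentration required for 50% inhibition of growth. The concentration for full growth arrest is given as TGI.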

This passage reports TGI and GI50 results from PubChem BioAssay (NCI).

Among the test systems are COLO 205 colon; MDA-MB-231 breast; RXF 393 renal; SW-620 colon; SK-MEL-5 melanoma; A549 NSCLC; CAKI-1 renal; CCRF-CEM leukemia; SK-MEL-2 melanoma; TK-10 renal.
What all share (assay): NCI-60 cell line screen, 48 h

For the compound `CS(=O)(=O)Nc1ccc2c(c1)N(S(C)(=O)=O)CC2CCl` (configuration not stated), the TGI in the test with COLO 205 colon, in the test on MDA-MB-231 breast, with RXF 393 renal, in the test with SW-620 colon, in the test with SK-MEL-5 melanoma and in the test with A549 NSCLC was above 100 µM in each case. In addition, the TGI with CAKI-1 renal, in the test on CCRF-CEM leukemia, in the test on SK-MEL-2 melanoma and in the test on TK-10 renal was above 100 µM throughout.
As to `COc1cc(C(c2c(O)c3ccccc3oc2=O)c2c(O)c3ccccc3oc2=O)cc(Br)c1O`, the TGI with COLO 205 colon stood at 32 µM; in the test on MDA-MB-231 breast it was 32.8 µM; in the test with RXF 393 renal, 39.6 µM; in the test with SW-620 colon it was 48.4 µM; with SK-MEL-5 melanoma, 29.8 µM; in the test with A549 NSCLC, 35.6 µM. For the same compound, the TGI in the test with CAKI-1 renal was 34.9 µM; with SK-MEL-2 melanoma it was 42.5 µM; with TK-10 renal, 30.6 µM.
`Cc1cc(S(=O)(=O)Nc2n[nH]c(-c3ccccn3)n2)c(S)cc1Cl`: the TGI in the test with COLO 205 colon is 90.6 µM; with MDA-MB-231 breast it was above 100 µM; in the test with RXF 393 renal it was 34.1 µM; with SW-620 colon, 54.2 µM; with SK-MEL-5 melanoma it was 24.3 µM; with A549 NSCLC, 41.9 µM. The TGI in the test with CAKI-1 renal stood at 15.7 µM; in the test on SK-MEL-2 melanoma, 63.9 µM; in the test with TK-10 renal, 23.9 µM.
On to `C1=C2C3=[N+](CCCCC3)CC2Cc2ccsc21` (configuration not stated), for which the TGI in the test on COLO 205 colon, with MDA-MB-231 breast, with RXF 393 renal, in the test with SW-620 colon, in the test on SK-MEL-5 melanoma and with A549 NSCLC was above 100 µM in each case. The TGI with CAKI-1 renal, in the test on CCRF-CEM leukemia, in the test on SK-MEL-2 melanoma and in the test on TK-10 renal was above 100 µM each time.
For the compound `CC(C)C(=O)C(C)(C)CCc1ccccn1`, the TGI in the test with COLO 205 colon, in the test on MDA-MB-231 breast, in the test on RXF 393 renal, in the test with SW-620 colon, in the test with SK-MEL-5 melanoma and with A549 NSCLC was above 100 µM throughout. For the same compound, the TGI in the test on CAKI-1 renal, in the test on CCRF-CEM leukemia, in the test with SK-MEL-2 melanoma and in the test on TK-10 renal was above 100 µM in each case.
Regarding `Nc1nc(Cl)cc(NCC2(O)CC2)n1`, the TGI in the test on MDA-MB-231 breast, in the test on RXF 393 renal, in the test with SW-620 colon, with SK-MEL-5 melanoma, with A549 NSCLC and with CAKI-1 renal was above 100 µM throughout. Further, the TGI in the test on CCRF-CEM leukemia, with SK-MEL-2 melanoma and with TK-10 renal was above 100 µM throughout.
Consider `COc1ccc(C2C3=C(COC3=O)Oc3cc4c(cc32)OCO4)c(OC)c1` (configuration not stated), for which the TGI in the test with COLO 205 colon was above 100 µM; with MDA-MB-231 breast, above 100 µM; in the test with RXF 393 renal, 51 µM; with SW-620 colon it was above 100 µM; in the test on SK-MEL-5 melanoma it was above 100 µM; in the test on A549 NSCLC, above 100 µM. Besides, the TGI in the test on CAKI-1 renal, in the test on CCRF-CEM leukemia and with TK-10 renal was above 100 µM throughout.
Regarding `COc1cccc2c1C(=O)c1c(O)c3c(c(O)c1C2=O)C[C@H](O)C[C@@H]3OC1CC(N)C(O)C(C)O1` (some centres not stated), the TGI in the test on COLO 205 colon came out at 10.3 µM; with MDA-MB-231 breast it was 6.05 µM; in the test with RXF 393 renal, 25 µM; with SK-MEL-5 melanoma, 2.22 µM; in the test on A549 NSCLC, 14.1 µM; with CAKI-1 renal, 4.83 µM. The figures for the TGI in the test on CCRF-CEM leukemia, in the test with SK-MEL-2 melanoma and in the test on TK-10 renal were 6.06 µM, 5.41 µM and 7.15 µM, respectively.
As to `C=C1N(C=O)C(C)(C)N(O)C1(C)C`, the TGI with COLO 205 colon, in the test on MDA-MB-231 breast, in the test on RXF 393 renal, in the test with SW-620 colon, in the test on SK-MEL-5 melanoma and in the test with A549 NSCLC was above 100 µM each time. For the same compound, the TGI in the test with CAKI-1 renal, with SK-MEL-2 melanoma and in the test on TK-10 renal was above 100 µM in each case.
Turning to `COc1cc(C(=O)Oc2ccc3c(c2)OCO3)cc(OC)c1OC`, the TGI in the test with COLO 205 colon, in the test with MDA-MB-231 breast, with RXF 393 renal, with SW-620 colon, with SK-MEL-5 melanoma and with A549 NSCLC was above 100 µM in each case. For the same compound, the TGI with CAKI-1 renal, with SK-MEL-2 melanoma and in the test with TK-10 renal was above 100 µM each time.
Consider `CCc1c(CNc2ccc(C(=O)NC(CC(=O)O)C(=O)O)cc2)ccc2nc(N)nc(N)c12` (configuration not stated), for which the GI50 with MDA-MB-231 breast, with RXF 393 renal, in the test with SK-MEL-2 melanoma and in the test with TK-10 renal was above 1000 µM throughout. Besides, the TGI with MDA-MB-231 breast, in the test with RXF 393 renal, with SW-620 colon, in the test with SK-MEL-5 melanoma, with A549 NSCLC and in the test on CAKI-1 renal was above 1000 µM each time. For the same compound, the TGI in the test with CCRF-CEM leukemia, with SK-MEL-2 melanoma and with TK-10 renal was above 1000 µM throughout.
On to `O=C1C=CC(=O)N1n1c(-c2ccccc2)n[nH]c1=O`, for which the TGI in the test on COLO 205 colon, in the test with MDA-MB-231 breast, in the test with RXF 393 renal, with SK-MEL-5 melanoma, with A549 NSCLC and in the test with CAKI-1 renal was above 100 µM throughout. The TGI with CCRF-CEM leukemia, in the test on SK-MEL-2 melanoma and with TK-10 renal was above 100 µM throughout.
Consider `O=c1cc(-c2ccncc2)[nH]c2cc3c(cc12)OCO3`, for which the TGI in the test with COLO 205 colon, in the test on MDA-MB-231 breast, in the test on RXF 393 renal, in the test with SW-620 colon, in the test on SK-MEL-5 melanoma and in the test on A549 NSCLC was above 100 µM throughout. In addition, the TGI in the test with SK-MEL-2 melanoma and in the test with TK-10 renal was above 100 µM in each case.
Regarding `C=C1OC(c2ccccc2NC)=NC12CCCCC2`, the TGI in the test on COLO 205 colon, in the test on MDA-MB-231 breast, with RXF 393 renal, in the test with SW-620 colon, with SK-MEL-5 melanoma and in the test with A549 NSCLC was above 100 µM throughout. For the same compound, the TGI in the test on CAKI-1 renal, with CCRF-CEM leukemia and with TK-10 renal was above 100 µM each time.
